The values below come from ChEMBL document CHEMBL4130591, “2-Arylidene Hydrazinecarbodithioates as Potent, Selective Inhibitors of Cystathionine γ-Lyase (CSE)” (ACS Med Chem Lett, 2017).

What is called inhibition is the change of the read-out against control, counted positive when it falls. One may read the pIC50 as the IC50 on a negative log10 scale, so that one unit is a factor of ten.

pIC50: −log10 of the molar value. Activity calls are given as the source filed them. The calls are words filed in the database; no cut-off is given here.

T2 sequence (P32929 whole entry): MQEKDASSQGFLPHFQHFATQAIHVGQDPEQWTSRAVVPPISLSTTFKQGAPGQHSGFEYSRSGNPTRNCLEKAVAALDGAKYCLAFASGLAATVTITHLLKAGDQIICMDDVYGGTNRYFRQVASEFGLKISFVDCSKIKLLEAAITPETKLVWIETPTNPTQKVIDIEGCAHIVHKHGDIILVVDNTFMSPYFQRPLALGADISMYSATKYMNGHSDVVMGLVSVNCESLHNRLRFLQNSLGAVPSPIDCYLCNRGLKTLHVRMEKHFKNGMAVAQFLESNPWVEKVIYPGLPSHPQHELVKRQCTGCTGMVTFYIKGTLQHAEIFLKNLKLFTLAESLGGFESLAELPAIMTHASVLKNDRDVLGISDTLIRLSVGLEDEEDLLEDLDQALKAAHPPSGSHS

The first assay is filed under the species Homo sapiens. In words: Selectivity for cystathionine gamma-lyase (unknown origin) over human recombinant CBS.
Consider `COc1ccc(NC(=O)CSC(=S)N/N=C/c2ncccc2F)cc1`, for which the Selectivity ratio stood at 400.

The next assay concerns the target T1, Cystathionine beta-synthase (Homo sapiens) (UniProt P35520).
T1 sequence (whole entry): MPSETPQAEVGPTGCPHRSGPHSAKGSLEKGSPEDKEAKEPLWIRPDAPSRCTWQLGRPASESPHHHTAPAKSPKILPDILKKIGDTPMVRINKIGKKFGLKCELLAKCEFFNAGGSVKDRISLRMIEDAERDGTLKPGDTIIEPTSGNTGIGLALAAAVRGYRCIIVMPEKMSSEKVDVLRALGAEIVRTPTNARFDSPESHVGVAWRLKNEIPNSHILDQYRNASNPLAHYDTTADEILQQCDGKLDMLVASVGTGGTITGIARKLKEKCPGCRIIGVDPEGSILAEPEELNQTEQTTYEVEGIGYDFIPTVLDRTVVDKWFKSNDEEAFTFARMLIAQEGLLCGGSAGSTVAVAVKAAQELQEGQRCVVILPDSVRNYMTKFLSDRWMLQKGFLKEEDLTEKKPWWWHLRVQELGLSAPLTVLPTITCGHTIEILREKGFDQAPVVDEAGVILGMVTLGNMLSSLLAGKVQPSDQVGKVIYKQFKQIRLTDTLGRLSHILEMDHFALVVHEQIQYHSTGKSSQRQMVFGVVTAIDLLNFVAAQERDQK
The assay is described as follows: Inhibition of human recombinant CBS assessed as reduction in H2S production at 40 uM using AzMC probe by fluorescence based assay.
Consider `CSC1=NNC(c2ccccn2)S1` (stereo not given), for which the inhibition entry was “inactive”.

The next assay addresses T2, Cystathionine gamma-lyase (Homo sapiens, UniProt P32929). The assay is described as follows: Inhibition of cystathionine gamma-lyase (unknown origin) assessed as reduction in H2S production at 40 uM using AzMC probe by fluorescence based assay.
Consider `CSC1=NNC(c2ccccn2)S1` (stereo not given), for which the inhibition result is “Active”.

Another assay deals with T2, Cystathionine gamma-lyase. The assay is described as follows: Inhibition of cystathionine gamma-lyase (unknown origin) assessed as reduction in cysteine formation from CPM at 40 uM using L-cystathionine incubated for 7 mins by fluorescence-based primary assay.
Take `CSC1=NNC(c2ccccn2)S1` (stereo not given): the inhibition is over 30%.

The next assay concerns the target T2, Cystathionine gamma-lyase. The assay is described as follows: Inhibition of cystathionine gamma-lyase (unknown origin) assessed as reduction in cysteine formation from CPM using L-cystathionine pre-incubated for 15 min followed by L-cystathionine and CPM addition and measured after 7 mins by fluorescence-based primary assay.
`CC(C)(C)c1ccc(NC(=O)CSC(=S)N/N=C/c2ccccn2)cc1`: the pIC50 is 5.52.
Regarding `CC(C)(C)c1ccc(NC(=O)CSC(=S)N/N=C/c2cccc(Br)n2)cc1`, the pIC50 is 4.82.
As to `Cc1ccc(NC(=O)CSC(=S)N/N=C/c2cccc(C)n2)cc1`, the pIC50 is 5.46.
Take `COc1ccc(NC(=O)CSC(=S)N/N=C/c2ncccc2F)cc1`: the pIC50 was 5.92.
As for `O=C(CSC(=S)N/N=C/c1ccccn1)Nc1cccc(Br)c1`, the pIC50 is under 4.00.
Take `Cc1ccc(NC(=O)CSC(=S)N/N=C/c2cccc(Br)n2)cc1`: the pIC50 was 5.00.
In the case of `CC(C)(C)c1ccc(NC(=O)CSC(=S)N/N=C/c2ncccc2F)cc1`, the pIC50 was 5.70.
The same measure, in the same setting: then `Cc1ccc(NC(=O)CSC(=S)N/N=C/c2ncccc2F)cc1`, with 5.70; and `Cc1ccc(NC(=O)CSC(=S)N/N=C/c2nn(C)cc2Cl)cc1`, with 5.52.
Consider `CSC1=NNC(c2ccccn2)S1` (stereo not given), for which the pIC50 is 5.22.
The same measure, in the same setting: then `Cc1ccc(NC(=O)CSC(=S)N/N=C/c2cccnc2)cc1`, with 4.60; and `CSC(=S)N/N=C/c1cccc(C)n1`, with 5.30; and `CSC(=S)N/N=C/c1ccc(Br)cn1`, with 5.00.
The same measure, in the same setting: then `Cc1cccc(/C=N/NC(=S)SCC(=O)Nc2ccc(C(C)(C)C)cc2)n1`, with 5.22; and `O=C(CSC(=S)N/N=C/c1ncccc1F)Nc1ccc(C(F)(F)F)cc1`, with 5.22; and `Cc1ccc(NC(=O)CSC(=S)N/N=C/c2ncccc2C)cc1`, with 5.60.
Same read-out and setting: then `CSC(=S)N/N=C/c1cscn1`, with 5.15.
On to `CC(C)(C)c1ccc(NC(=O)CSC(=S)N/N=C/c2cccnc2)cc1`, for which the negative logarithm of the IC50 (pIC50) is 4.92.
For `CSC(=S)N/N=C/c1cccc(Br)n1`, the pIC50 is 4.92.
`CSC(=S)N/N=C/c1ccncc1`: the negative-log IC50 (pIC50) is 4.40.
For the molecule `CSC(=S)N/N=C/c1cc2ccccc2n1C`, the pIC50 was under 4.00.
On to `CSC(=S)N/N=C/c1ccccn1`, for which the pIC50 was 5.22.
Still for that read-out and setting: then `CSC(=S)N/N=C/c1cccnc1`, with 4.30; and `COc1ccc(NC(=O)CSC(=S)N/N=C/c2ccccn2)cc1`, with 5.70.
For `O=C(CSC(=S)N/N=C/c1ccccn1)Nc1ccc(F)cc1`, the pIC50 was under 4.00.
On to `COc1ccc(NC(=O)CSC(=S)N/N=C/c2nn(C)cc2Cl)cc1`, for which the pIC50 is 5.57.
Turning to `CC(C)(C)c1ccc(NC(=O)CSC(=S)N/N=C/c2cnccn2)cc1`, the negative logarithm of the IC50 (pIC50) was under 4.00.
`Cn1cc(Cl)c(/C=N/NC(=S)SCC(=O)Nc2ccc(C(C)(C)C)cc2)n1`: the pIC50 was 5.22.
Still for that read-out and setting: then `CS/C(S)=N/N=C(\C)c1ccccn1`, with under 4.00; and `O=C(CSC(=S)N/N=C/c1ccccn1)Nc1ccccc1`, with 5.22; and `CSC(=S)N/N=C/c1nn(C)cc1Cl`, with 5.22.
The same measure, in the same setting: then `COc1ccc(NC(=O)CSC(=S)N/N=C/c2cscn2)cc1`, with 5.68; and `CSC(=S)N/N=C/c1c[nH]c2ccccc12`, with under 4.00.
Consider `CSC(=S)N/N=C/c1cnccn1`, for which the pIC50 was 4.82.
For `COc1ccc(NC(=O)CSC(=S)N/N=C/c2ccc(Br)cn2)cc1`, the pIC50 is under 4.00.
As for `CSC(=S)N/N=C/c1ncccc1C`, the pIC50 is 5.22.
Same read-out and setting: then `Cc1ccc(NC(=O)CSC(=S)N/N=C/c2ccccn2)cc1`, with 5.70.
With `COc1ccc(NC(=O)CSC(=S)N/N=C/c2cccc(C)n2)cc1`, the pIC50 was 5.72.
On the same count and under the same terms, then `CC(C)(C)c1ccc(NC(=O)CSC(=S)N/N=C/c2ccncc2)cc1`, with 4.40.
On to `CSC(=S)N/N=C/c1ncccc1F`, for which the pIC50 was 5.30.
`CSC(=S)N/N=C/c1cc[nH]n1`: the pIC50 was 4.82.

For a further assay, the target named is T2, Cystathionine gamma-lyase. In words: Reversible inhibition of cystathionine gamma-lyase (unknown origin) assessed as reduction in cysteine formation from CPM using L-cystathionine at 50 uM incubated for 2 hrs followed by dialysis for 18 to 48 hrs by fluorescence-based primary assay.
For the molecule `CSC1=NNC(c2ccccn2)S1` (stereo not given), the inhibition result is “Active”.

Another assay has as its target T2, Cystathionine gamma-lyase. In words: Inhibition of cystathionine gamma-lyase (unknown origin).
In the case of `C#CCNC(=O)[C@H]1CSC(=O)N1`, the pIC50 is 4.52.
On the same count and under the same terms, then `NCCO/C=C/[C@H](N)C(=O)O`, with 5.96; and `CC(C)(S)[C@@H](N)C(=O)O` [PENICILLAMINE], with 3.57; and `N=C1C=C(N)C(=O)c2[nH]c(=O)ccc21`, with 5.20.
